In BindingDB's records for patent US10919885 (Yumanity Therapeutics, 2021):

How the values were obtained:
Stearoyl-CoA desaturase = molecular target: T1, Stearoyl-CoA desaturase (Homo sapiens, UniProt O00767); assay: Compound Profiling Methods
T1 sequence (O00767 whole entry): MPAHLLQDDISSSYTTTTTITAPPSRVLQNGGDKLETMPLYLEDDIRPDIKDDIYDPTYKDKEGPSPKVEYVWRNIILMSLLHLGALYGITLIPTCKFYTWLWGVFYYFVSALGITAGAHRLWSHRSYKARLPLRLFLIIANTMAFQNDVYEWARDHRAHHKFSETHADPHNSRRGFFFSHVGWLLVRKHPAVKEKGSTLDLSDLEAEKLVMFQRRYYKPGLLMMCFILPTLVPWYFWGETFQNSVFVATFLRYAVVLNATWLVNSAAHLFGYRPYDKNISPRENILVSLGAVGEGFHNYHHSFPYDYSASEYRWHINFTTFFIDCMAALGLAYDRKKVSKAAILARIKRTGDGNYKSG
Procedure: (§1) Strains expressing SCD1 or SCD5 as the sole desaturase, the human SCD1 and SCD5 genes were used to evaluate inhibition of SCD1/SCD5 using reduced growth as a surrogate for SCD inhibition. These yeast strains express human SCD1 or SCD5 from a plasmid harbored in a strain in which the yeast OLE1 gene is deleted.All compound profiling experiments were performed using the same basic protocol. Yeast were cultured using standard techniques in complete synthetic media lacking uracil and containing yeast nitrogen base supplemented with 2% (w/v) glucose (SD-Ura) Starter cultures were inoculated in 3 mL SD-Ura media containing 0.01% tween and 0.2 mM palmitoleic and oleic acid. Cultures were incubated overnight in a 30° C. shaker incubator (225 rpm). Saturated morning cultures were centrifuged, washed in SD-Ura media lacking TWEEN-20 and fatty acids, and then diluted 1:20 in fresh SD-Ura media also lacking TWEEN-20 and fatty acids. […] Compound administration was performed in two separate steps. First, 15 μL of SD-Ura was dispensed into clear 384-well assay plates using a MULTIDROP Combi reagent dispenser. […] The cultures described above were centrifuged and washed with media lacking TWEEN-20 or oleic and palmitoleic acids. Cultures were then resuspended at a 2-fold concentrated OD600 of 0.02 (final OD600 of 0.0.01) in SD-Ura. […] Yeast growth was monitored by reading the OD600 of each well using a microplate reader (Perkin Elmer EnVision ). Data were analyzed as follows.

[1] = molecular target: T2, Stearoyl-CoA desaturase 5 (Homo sapiens, UniProt Q86SK9); assay: Compound Profiling Methods
T2 sequence (Q86SK9 whole entry): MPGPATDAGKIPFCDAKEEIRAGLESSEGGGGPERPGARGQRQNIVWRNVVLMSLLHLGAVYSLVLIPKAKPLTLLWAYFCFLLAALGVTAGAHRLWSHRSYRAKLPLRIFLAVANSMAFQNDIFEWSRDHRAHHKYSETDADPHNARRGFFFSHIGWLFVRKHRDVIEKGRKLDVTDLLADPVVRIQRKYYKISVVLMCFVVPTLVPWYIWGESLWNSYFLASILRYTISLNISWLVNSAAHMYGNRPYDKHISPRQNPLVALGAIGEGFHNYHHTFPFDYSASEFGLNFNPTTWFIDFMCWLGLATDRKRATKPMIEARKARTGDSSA
Procedure: as §1

| SMILES | IC50 (Stearoyl-CoA desaturase) [µM] | IC50 [1] [µM] |
| --- | --- | --- |
| O=C(c1cc(-c2ccc3c(c2)CCO3)on1)N1CCCC1c1ccncn1 (stereo not drawn) [US10919885, Compound No. 440] | > 45 | > 45 |
| CC(C)(C)OC(=O)N1CCC2(CCN(C(=O)c3cc(-c4ccccc4)on3)C2)C1 (stereo not drawn) [US10919885, Compound No. 295] | > 45 | 29.4 |
| O=C(c1cc(-c2ccc3c(c2)OCO3)on1)N1CCC(c2ccc(F)c(F)c2)CC1 [US10919885, Compound No. 292] | > 45 | 1.82 |
| CC(C)(C)OC(=O)N1CCC(NC(=O)c2cc(-c3ccco3)on2)CC1 [US10919885, Compound No. 287] | > 45 | > 45 |
| COc1ccc(C2CCCN2C(=O)c2cc(-c3ccccc3OC)on2)cc1 (stereo not drawn) [US10919885, Compound No. 379] | > 45 |  |
| O=C(c1noc2ccccc12)N1CCC[C@H]1c1ccccc1 [US10919885, Compound No. 438] | > 45 | > 45 |
| CC(C)(C)OC(=O)N1CCC(NC(=O)c2cc(-c3ccco3)on2)C1 (stereo not drawn) [US10919885, Compound No. 332] | > 45 | > 45 |

Now from value to molecule:

| IC50 (Stearoyl-CoA desaturase) [µM] | IC50 [1] [µM] | SMILES |
| --- | --- | --- |
| > 45 | 4.75 | N#Cc1ccc(C2CCN(C(=O)c3cc(-c4ccc5c(c4)OCO5)on3)CC2)cc1 [US10919885, Compound No. 291] |
| > 45 |  | O=C(Nc1cnn(Cc2ccccc2)c1)c1cc(-c2ccc3c(c2)OCO3)on1 [US10919885, Compound No. 6] |
| > 45 | > 45 | O=C(Nc1cnn(Cc2cccc(Cl)c2)c1)c1cc(-c2ccccn2)on1 [US10919885, Compound No. 57] |
